Calls of active or inactive are those of the source.
Key:
[1] = biological target: T1, Calpain-2 catalytic subunit (Sus scrofa, UniProt P43367); assay: pig calpain II inhibitor potency, dose response, biochemical, fluorogenic peptide substrate (AID 1420); assay type: functional
T1 sequence (P43367 whole entry): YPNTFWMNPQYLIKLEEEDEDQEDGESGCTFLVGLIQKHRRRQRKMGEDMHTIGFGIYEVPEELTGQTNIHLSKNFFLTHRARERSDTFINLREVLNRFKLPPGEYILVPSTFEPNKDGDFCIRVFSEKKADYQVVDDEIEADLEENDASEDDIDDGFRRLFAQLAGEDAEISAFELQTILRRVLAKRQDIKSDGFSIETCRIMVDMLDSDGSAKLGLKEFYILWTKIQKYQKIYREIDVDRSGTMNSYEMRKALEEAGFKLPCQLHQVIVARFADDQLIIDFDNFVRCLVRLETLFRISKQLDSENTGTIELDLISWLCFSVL

[2] = biological target: Eukaryotic translation initiation factor 4E (Mus musculus, UniProt P63073); assay: eIF4E–eIF4G protein interaction inhibitors, dose response, biochemical, TR-FRET (AID 855); assay type: functional;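 note: potency for disrupting eIF4E binding to eIF4GI seen as loss of FRET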
Chain of Eukaryotic translation initiation factor 4E (P63073 whole entry): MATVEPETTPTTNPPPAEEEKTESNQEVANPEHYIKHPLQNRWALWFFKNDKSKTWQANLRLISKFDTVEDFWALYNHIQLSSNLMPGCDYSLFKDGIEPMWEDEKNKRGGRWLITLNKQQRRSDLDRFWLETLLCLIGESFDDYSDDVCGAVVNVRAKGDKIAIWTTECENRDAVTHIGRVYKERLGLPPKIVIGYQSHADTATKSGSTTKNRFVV

Escherichia coli = assay: microbe, parasite or virus in culture
[3] = Counterscreen for IDE inhibitors: Luminescence-based cell-based high throughput dose response assay to identify compounds that are cytotoxic to HEK cells. [Related pubchem assays: 434962 (Primary screen (IDE inhibitors in singlicate)), 449730 (Counterscreen (Cytotoxicity in triplicate)), 435028 (Confirmation (IDE inhibitors in triplicate)) …; assay type: functional; conditions: HEK293
Insulin-degrading enzyme = biological target: T2, Insulin-degrading enzyme (Homo sapiens, UniProt P14735); assay: Dose Response: Fluorescence polarization-based cell-based high throughput dose response assay for inhibitors of insulin-degrading enzyme (IDE). [Related pubchem assays: 434962 (Primary screen (IDE inhibitors in singlicate)), 449730 (Counterscreen (Cytotoxicity in triplicate)), 435028 (Confirmation (IDE inhibitors in triplicate)), 434984 (Summary …; assay type: functional
T2 sequence (P14735 whole entry): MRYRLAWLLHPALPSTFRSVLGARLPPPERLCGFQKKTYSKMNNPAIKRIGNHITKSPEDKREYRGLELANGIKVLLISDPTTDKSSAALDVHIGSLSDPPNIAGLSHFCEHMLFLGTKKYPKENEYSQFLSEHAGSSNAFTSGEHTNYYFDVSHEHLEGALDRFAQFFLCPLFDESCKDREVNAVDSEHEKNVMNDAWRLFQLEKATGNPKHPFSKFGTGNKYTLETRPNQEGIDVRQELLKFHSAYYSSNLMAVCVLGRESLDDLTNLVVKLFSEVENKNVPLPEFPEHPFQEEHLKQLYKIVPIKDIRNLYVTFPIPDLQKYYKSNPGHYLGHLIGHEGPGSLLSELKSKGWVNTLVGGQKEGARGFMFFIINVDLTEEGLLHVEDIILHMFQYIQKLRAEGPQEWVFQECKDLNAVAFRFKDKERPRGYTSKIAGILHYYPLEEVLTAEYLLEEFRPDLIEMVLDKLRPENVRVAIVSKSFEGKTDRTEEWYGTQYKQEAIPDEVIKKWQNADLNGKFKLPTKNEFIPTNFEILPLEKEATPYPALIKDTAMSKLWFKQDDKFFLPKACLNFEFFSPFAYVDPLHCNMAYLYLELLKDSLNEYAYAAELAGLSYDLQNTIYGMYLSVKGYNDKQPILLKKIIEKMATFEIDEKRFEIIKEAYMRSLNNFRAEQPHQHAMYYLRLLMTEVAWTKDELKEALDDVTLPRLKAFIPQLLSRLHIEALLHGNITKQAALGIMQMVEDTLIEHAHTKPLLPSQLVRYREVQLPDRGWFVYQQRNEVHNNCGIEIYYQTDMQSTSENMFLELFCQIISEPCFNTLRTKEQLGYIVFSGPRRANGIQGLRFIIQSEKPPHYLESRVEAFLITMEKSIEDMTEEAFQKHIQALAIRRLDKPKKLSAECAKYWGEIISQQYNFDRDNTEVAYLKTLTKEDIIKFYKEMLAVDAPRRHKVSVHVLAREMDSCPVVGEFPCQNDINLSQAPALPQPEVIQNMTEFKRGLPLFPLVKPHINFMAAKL

[4] = A cytotoxicity screen of small molecule inhibitors of the PhoP region in Salmonella typhi identified in the primary screen. [Related pubchem assays: 1850, 1864, 1985 ]; assay type: functional
[5] = inhibitors of intracellular T. cruzi replication, confirmation, NIH3T3 host cells, beta-gal luminescence (AID 2044); assay type: functional, cell-based;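 note: intracellular parasites grown in NIH/3T3 mouse fibroblasts as host cells; luminescent beta-galactosidase reporter signal from transgenic T. cruzi replicating inside host cells; inhibitors lower the luminescence signal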
[6] = cytotoxicity toward NIH3T3 fibroblasts, dose response, counter-screen, cell-based, ATP luminescence, mouse fibroblasts (AID 2010); assay type: functional;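 note: cells exposed to compound for about 90 hours before reading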
[7] = cytotoxicity in HEK-293T cells, dose response, cytotoxicity control for BCR NF-kB inhibitor project, luminescence, B-cell screen hits (AID 489021); assay type: functional, cell-based;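 note: HEK-293T cells carrying an NF-kB luciferase reporter; cells exposed to compound for about 14 hours before viability readout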
INS1 = assay: beta cell apoptosis inhibitors, cytokine rescue, dose response, luminescence, retest (AID 449756); assay type: functional, cell-based; conditions: Rattus norvegicus;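 note: cell death triggered by IL-1 beta plus TNF-alpha plus IFN-gamma mixture; protective hits raise ATP signal compared with cytokine alone wells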
[8] = biological target: Photoreceptor-specific nuclear receptor (Homo sapiens, UniProt Q9Y5X4); assay type: functional;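 note: potency for compounds that break the NR2E3 corepressor complex and count as activators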
Chain of Photoreceptor-specific nuclear receptor (Q9Y5X4 whole entry): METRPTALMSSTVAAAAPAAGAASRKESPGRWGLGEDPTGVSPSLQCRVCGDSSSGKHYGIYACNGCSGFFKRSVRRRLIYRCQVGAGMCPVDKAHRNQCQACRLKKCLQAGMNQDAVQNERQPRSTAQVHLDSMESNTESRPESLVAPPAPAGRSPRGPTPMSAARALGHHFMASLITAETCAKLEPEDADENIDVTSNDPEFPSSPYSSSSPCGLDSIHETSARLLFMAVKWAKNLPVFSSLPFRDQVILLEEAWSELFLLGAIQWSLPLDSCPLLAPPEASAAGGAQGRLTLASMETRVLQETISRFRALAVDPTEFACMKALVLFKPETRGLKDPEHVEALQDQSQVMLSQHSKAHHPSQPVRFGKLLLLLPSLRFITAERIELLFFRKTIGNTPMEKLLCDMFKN

[9] = biological target: Peroxisome proliferator-activated receptor gamma/Nuclear receptor corepressor 2 (Homo sapiens, UniProt P37231+Q9Y618); assay type: functional
Chain of Peroxisome proliferator-activated receptor gamma/Nuclear receptor corepressor 2 (P37231 whole entry): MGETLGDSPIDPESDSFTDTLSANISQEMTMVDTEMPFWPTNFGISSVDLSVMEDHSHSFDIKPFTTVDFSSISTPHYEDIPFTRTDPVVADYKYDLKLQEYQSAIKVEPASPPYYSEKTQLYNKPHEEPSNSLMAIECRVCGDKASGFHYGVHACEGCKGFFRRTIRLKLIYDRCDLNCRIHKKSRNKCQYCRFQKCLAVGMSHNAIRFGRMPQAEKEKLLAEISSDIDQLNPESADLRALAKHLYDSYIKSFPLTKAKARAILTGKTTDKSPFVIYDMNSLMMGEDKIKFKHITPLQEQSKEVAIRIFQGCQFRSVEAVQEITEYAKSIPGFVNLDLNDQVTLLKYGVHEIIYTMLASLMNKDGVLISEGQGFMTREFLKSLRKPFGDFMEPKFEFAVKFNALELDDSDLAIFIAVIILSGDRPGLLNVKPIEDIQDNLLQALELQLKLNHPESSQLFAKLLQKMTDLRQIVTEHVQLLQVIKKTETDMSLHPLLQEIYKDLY
Chain of Peroxisome proliferator-activated receptor gamma/Nuclear receptor corepressor 2 (Q9Y618 whole entry): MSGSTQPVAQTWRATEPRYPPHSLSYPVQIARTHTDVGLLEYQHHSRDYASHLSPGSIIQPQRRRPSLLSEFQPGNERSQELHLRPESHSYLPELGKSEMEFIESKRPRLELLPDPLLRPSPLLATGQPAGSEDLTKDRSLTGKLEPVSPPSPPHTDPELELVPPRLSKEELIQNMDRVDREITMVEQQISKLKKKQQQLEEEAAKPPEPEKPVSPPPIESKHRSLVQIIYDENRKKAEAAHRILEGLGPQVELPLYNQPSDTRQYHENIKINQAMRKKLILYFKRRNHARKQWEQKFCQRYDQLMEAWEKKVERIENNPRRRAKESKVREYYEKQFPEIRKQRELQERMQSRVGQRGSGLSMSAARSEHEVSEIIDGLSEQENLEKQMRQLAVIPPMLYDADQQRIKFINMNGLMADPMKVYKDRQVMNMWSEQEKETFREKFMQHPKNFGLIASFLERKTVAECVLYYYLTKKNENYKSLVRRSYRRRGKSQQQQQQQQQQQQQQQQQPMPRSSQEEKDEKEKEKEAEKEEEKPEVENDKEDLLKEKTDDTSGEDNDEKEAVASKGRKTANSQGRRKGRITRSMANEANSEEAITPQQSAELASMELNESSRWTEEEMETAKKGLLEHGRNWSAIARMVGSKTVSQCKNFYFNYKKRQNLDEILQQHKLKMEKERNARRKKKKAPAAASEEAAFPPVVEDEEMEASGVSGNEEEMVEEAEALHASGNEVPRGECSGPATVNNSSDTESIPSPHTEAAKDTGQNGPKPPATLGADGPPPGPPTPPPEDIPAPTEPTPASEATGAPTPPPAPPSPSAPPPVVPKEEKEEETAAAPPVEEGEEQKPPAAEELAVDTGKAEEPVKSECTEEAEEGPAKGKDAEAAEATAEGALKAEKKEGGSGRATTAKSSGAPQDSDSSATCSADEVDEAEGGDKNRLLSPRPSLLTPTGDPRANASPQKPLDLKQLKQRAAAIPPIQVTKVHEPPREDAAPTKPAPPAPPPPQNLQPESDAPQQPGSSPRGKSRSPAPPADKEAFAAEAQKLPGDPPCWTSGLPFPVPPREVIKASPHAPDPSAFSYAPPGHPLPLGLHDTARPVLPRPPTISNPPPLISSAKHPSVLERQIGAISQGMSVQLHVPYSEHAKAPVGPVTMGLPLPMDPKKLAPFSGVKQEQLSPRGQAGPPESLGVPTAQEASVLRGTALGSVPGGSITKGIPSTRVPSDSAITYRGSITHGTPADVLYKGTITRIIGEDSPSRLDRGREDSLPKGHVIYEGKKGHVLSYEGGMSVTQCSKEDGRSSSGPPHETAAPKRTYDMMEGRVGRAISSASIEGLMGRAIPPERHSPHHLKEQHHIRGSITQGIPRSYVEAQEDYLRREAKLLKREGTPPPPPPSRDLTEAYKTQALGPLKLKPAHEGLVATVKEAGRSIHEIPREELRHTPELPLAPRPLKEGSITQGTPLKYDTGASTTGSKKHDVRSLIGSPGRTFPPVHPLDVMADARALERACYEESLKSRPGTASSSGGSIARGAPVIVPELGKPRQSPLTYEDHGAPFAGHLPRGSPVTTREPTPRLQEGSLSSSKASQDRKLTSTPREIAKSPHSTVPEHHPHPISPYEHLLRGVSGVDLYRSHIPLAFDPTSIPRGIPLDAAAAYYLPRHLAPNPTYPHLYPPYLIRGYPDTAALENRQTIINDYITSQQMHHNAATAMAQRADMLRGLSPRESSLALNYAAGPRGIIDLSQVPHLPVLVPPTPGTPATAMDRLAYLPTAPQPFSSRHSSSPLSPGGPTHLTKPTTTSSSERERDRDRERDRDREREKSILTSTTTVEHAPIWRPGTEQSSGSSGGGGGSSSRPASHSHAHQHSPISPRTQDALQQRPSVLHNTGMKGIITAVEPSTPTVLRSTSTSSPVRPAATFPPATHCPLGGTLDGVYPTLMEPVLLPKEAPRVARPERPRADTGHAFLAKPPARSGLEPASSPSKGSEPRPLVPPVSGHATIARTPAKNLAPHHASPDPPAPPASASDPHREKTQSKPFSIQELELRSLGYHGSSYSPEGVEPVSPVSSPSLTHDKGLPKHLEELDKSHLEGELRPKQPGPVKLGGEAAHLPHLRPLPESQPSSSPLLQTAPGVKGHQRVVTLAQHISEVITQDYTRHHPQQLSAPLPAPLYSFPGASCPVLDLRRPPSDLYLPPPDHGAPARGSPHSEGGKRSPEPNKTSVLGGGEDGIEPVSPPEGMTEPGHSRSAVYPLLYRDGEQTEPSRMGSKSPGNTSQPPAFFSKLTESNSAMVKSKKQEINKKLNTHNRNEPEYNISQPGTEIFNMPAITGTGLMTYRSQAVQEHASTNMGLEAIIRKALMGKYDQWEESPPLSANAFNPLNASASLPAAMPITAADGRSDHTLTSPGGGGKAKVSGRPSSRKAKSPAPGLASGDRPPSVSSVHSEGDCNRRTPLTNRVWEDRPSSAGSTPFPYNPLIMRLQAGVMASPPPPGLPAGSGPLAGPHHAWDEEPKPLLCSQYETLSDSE

[10] = biological target: Lysosomal acid glucosylceramidase (Homo sapiens, UniProt P04062); assay: Dose response cell-based high throughput screening assay to identify enhancers of beta-glucosidase activity. [Related pubchem assays: 784 ]; assay type: functional
Chain of Lysosomal acid glucosylceramidase (P04062 whole entry): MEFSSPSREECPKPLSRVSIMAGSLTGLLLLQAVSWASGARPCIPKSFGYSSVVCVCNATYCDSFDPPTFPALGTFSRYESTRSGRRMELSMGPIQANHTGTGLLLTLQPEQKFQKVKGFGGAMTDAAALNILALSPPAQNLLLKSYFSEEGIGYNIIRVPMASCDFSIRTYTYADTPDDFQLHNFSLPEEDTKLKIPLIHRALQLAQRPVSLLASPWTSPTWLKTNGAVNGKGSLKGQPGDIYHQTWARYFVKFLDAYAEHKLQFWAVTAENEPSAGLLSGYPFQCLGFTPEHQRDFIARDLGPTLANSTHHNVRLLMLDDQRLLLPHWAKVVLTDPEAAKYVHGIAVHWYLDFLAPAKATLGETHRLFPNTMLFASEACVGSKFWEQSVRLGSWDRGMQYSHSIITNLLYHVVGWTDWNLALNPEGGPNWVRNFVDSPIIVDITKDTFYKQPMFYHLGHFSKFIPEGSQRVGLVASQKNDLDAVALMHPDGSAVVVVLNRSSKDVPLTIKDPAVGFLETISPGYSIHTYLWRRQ

[11] = inhibitors of firefly luciferase expression or activity, dose response, H4 neuroglioma cells, luminescence (AID 1990); assay type: functional, cell-based
[12] = Luminescence Cell-Based Dose Response HTS to Identify Inhibitors of 5'UTR Stem-Loop Driven Prion Protein mRNA Translation in H4 Neuroglioblastoma Cells. [Related pubchem assays: 1827 (Project Summary), 1813 (Primary HTS)]; assay type: functional
[13] = Luminescence-based counterscreen assay for KLF5 inhibitors: dose response cell-based high throughput screening assay to identify cytotoxic compounds using the IEC-6 intestinal epithelial cell line. [Related pubchem assays: 1700 (Primary screen.), 1834 (Confirmation screen.), 1858 (Summary AID.), 1905 (Counterscreen.)]; assay type: functional
[14] = biological target: T3, Microphthalmia-associated transcription factor (Homo sapiens, UniProt O75030); assay: TRPM1 promoter luciferase signal decrease, dose response, MITF inhibitor project, cell-based, SK-MEL-5, cherry-picked, set 3 (AID 493073); assay type: functional
T3 sequence (O75030 whole entry): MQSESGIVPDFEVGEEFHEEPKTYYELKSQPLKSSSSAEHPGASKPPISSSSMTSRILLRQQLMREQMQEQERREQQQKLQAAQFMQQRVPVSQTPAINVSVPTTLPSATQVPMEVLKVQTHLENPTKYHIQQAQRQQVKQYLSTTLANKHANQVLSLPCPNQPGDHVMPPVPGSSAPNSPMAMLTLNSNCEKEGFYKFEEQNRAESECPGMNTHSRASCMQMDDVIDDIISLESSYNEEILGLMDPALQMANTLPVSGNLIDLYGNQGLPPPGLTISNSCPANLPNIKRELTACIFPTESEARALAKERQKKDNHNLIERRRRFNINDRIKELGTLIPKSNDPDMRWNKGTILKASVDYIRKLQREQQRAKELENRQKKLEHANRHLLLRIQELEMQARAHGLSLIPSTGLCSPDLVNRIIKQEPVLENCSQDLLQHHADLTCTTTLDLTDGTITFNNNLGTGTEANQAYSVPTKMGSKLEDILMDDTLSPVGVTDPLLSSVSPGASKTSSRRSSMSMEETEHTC

[15] = Shn3 3'UTR reporter inhibitors, dose response, cell-based, Clone20 osteoblasts, firefly luciferase, cherry-picked (AID 624132); assay type: functional;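 note: firefly luciferase luminescence from reporter carrying the Shn3 3'UTR in osteoblasts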
[16] = HepG2 cell cytotoxicity, dose response, cytotoxicity control for Shn3 inhibitor project, CellTiter-Glo, cherry-picked (AID 624134); assay type: functional, cell-based
[17] = reduction of Shn3 3'UTR firefly luciferase signal, dose response, Schnurri-3 inhibitor project, cell-based, Clone20 osteoblasts, cherry-pick, set 2 (AID 720490); assay type: functional;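 note: actives lower the luminescence signal as inhibitors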

With O=C(Nc1cccc(-c2nc3cccnc3s2)c1)C1c2ccccc2Oc2ccccc21 as the molecule, how does the IC50 [1] read?
The IC50 was 7.46 µM (active).

What about the IC50 [2] of the same molecule?
Its IC50 is > 64 µM (inactive).

What about the AC50 (Escherichia coli) of the same molecule?
The AC50 was 50.5 µM (active).

Which IC50 [3] does the source give for Cc1c(CCC(=O)NCCCn2ccnc2)c(=O)oc2cc3oc4c(c3cc12)CCCC4 here?
Its IC50 is 14.4 µM (not active).

And the IC50 (Insulin-degrading enzyme)?
Its IC50 is 4.31 µM (active).

For COc1nccnc1NS(=O)(=O)c1ccc(NC(=S)NC(=O)c2cccnc2)cc1, which EC50 [4] is on record?
Its EC50 is > 50 µM (active).

For CC(=O)C1=NN(c2ccccc2)C(c2cccs2)N1c1ccc(N(C)C)cc1 (configuration not stated), which EC50 [5] is on record?
Its EC50 is 776 nM (active).

And the EC50 [6]?
The EC50 was > 60 µM (inconclusive).

What about the IC50 [7] of the same molecule?
The IC50 was > 80 µM (inactive).

What about the AC50 (INS1) of the same molecule?
The AC50 was 3.1 µM (active).

Which results are given for Cc1ccc(C(=O)C2=C(O)C(=O)N(Cc3cccnc3)C2c2ccc(Br)cc2)o1 (configuration not stated)?
IC50 [8]: > 39.8 µM (not active); IC50 [9]: 9.36 µM (active)

For Cc1ccc(C(C(=O)NC2CCCCC2)N2CCCC2)cc1 (configuration not stated), which EC50 [10] is on record?
Its EC50 is > 50 µM (not active).

Which IC50 [8] does the source give for O=C(C1=C(O)C(=O)N(CCN2CCOCC2)C1c1ccc(Cl)cc1)c1cc2ccccc2o1 (configuration not stated) here?
The IC50 was > 39.8 µM (not active).

And the IC50 [9]?
Its IC50 is 9.92 µM (active).

What does the source list for COc1ccc(-n2ncc3c(N4CCCCC4)ncnc32)cc1?
EC50 [11]: 1.72 µM (inconclusive); EC50 [12]: 282 nM (active); IC50 [13]: > 39.8 µM (not active); AC50 [14]: 1.48 µM (active); AC50 [15]: 2.87 µM (active); AC50 [16]: > 70 µM (inactive); AC50 [17]: 11 µM (active)

Source: ChEMBL document CHEMBL1201862, “PubChem BioAssay data set” (2004)
